Laboratory results as given in US11046709B2, “Fused 1,4-diazepines as BET bromodomain inhibitors” (THE REGENTS OF THE UNIVERSITY OF MICHIGAN, priority 2017, dated 2021).

Tests used:
[1] = test system: MOLM-13; assay: Cell growth inhibition, 4-day proliferation assay, MOLM-13; type: cell-based; details: Homo sapiens, MOLM-13, WST-8 assay, Table 7; read-out: Cell growth inhibition (IC50 (nM)) MOLM-13
[2] = target: T1, recombinant BRD4 BD2 (Homo sapiens, UniProt O60885); assay: Competitive fluorescence-polarization (FP) binding assay, BRD4 BD2; details: competitive FP, Table 6; read-out: IC50 as determinined in FP assays BRD4 BD2
T1 construct: for recombinant BRD4 BD1 and BRD4 BD2 proteins

[3] = target: T2, recombinant BRD4 BD1 (Homo sapiens, UniProt O60885); assay: Competitive fluorescence-polarization (FP) binding assay, BRD4 BD1; details: competitive FP, Table 6; read-out: IC50 as determinined in FP assays BRD4 BD1
T2 construct: for recombinant BRD4 BD1 and BRD4 BD2 proteins
Protocol: Fluorescence Polarization (FP) competitive binding studies were carried out using a FAM labeled fluorescent probe, see, e.g., Cpd. No. 350 of US 2014/0256706, to determine binding affinities of representative Compounds of the Disclosure for recombinant BRD4 BD1 and BRD4 BD2 proteins. Equilibrium dissociation constants (Kd) values of the fluorescent probe to BRD4 BD1 and BD2 proteins were determined from protein saturation experiments by monitoring the total fluorescence polarization of mixtures composed with the fluorescent probe at a fixed concentration and proteins with increasing concentrations up to full saturation. Serial dilutions of testing proteins were mixed with the fluorescent probe to a final volume of 200 μl in the assay buffer (100 mM phosphate buffer, pH=6.5, 0.01% Triton X-100 (Sigma, 282103) being added right before assays). Final fluorescent probe concentration was 1.5 nM for both proteins. Plates were incubated at room temperature for 30 minutes with gentle shaking to assure equilibrium. FP values in millipolarization units (mP) were measured using the Infinite M-1000 plate reader (Tecan U.S., Research Triangle Park, N.C.) in Microfluor 1 96-well, black, round-bottom plates (Thermo Scientific, Waltham, Mass.) at an excitation wavelength of 485 nm and an emission wavelength of 530 nm. Kd values of the fluorescent probe, which were calculated by fitting the sigmoidal dose-dependent FP increases as a function of protein concentrations using Graphpad Prism 6.0 software (Graphpad Software, San Diego, Calif.), are 5.5 and 3.0 nM to BDR4 BD1 and 2, respectively.
The IC50 and Ki values of compounds were determined in a competitive binding experiment. See US 2014/0256706. Mixtures of 10 μl of the tested compounds in assay buffer with 40% Ethylene Glycol and 190 μl of preincubated protein/probe complex solution in the assay buffer (100 mM potassium phosphate, pH 6.5, 0.01% Triton X-100) were added into assay plates which were incubated at room temperature for 30 minutes with gentle shaking. Final concentrations of proteins were 10 and 6 nM in assays for BRD4 BD1 and BD2, respectively. Final probe concentration is 1.5 nM in both assays. Negative controls containing protein/probe complex only (equivalent to 0% inhibition), and positive controls containing only free probes (equivalent to 100% inhibition), were included in each assay plate. FP values were measured as described above. IC50 values were determined by nonlinear regression fitting of the competition curves. Instead of being calculated from IC50 values as described before. Ki values of competitive inhibitors were obtained directly by nonlinear regression fitting as well, based upon the Kd values of the probe to different proteins, and concentrations of the proteins and probes in the competitive assays (US 2014/0256706; Wang, FEBS Lett. 360:111 (1995); Zhang et al., Analytical Biochemistry, 331:138 (2004)).
Representative compounds in Table 5 were evaluated for their binding affinities to BRD4 BD1 and BD2 proteins using the Competitive Fluorescence-Polarization (FP) Assays described in Example 6, with the data included in Table 6.

[4] = test system: MDA-MB-231; assay: Cell growth inhibition, 4-day proliferation assay, MDA-MB-231; type: cell-based; details: Homo sapiens, MDA-MB-231; WST-8 assay, Table 7; read-out: Cell growth inhibition (IC50 (nM)) MDA-MB-231
In short: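 WST-8 colorimetric read-out (absorbance 450 nm after 1-2 h) after 4-day compound exposure of 3,000-10,000 cells/well at 37 °C; IC50 from variable-slope sigmoid fit of DMSO-normalized signal.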

Compound	IC50 [1]	IC50 [2]	IC50 [3]	IC50 [4]
Cc1c(C#Cc2cccnc2)sc2c1C(c1ccc(Cl)cc1)=N[C@@H](CC(=O)N1CCN(C)CC1)c1nnc(C)n1-2 [Compound 115, (S)-2-(4-(4-chlorophenyl)-3,9-dimethyl-2-(pyridin-3-ylethynyl)-6H-thieno[3,2-f][1,2,4]triazolo[4,3-a][1,4]diazepin-6-yl)-1-(4-methylpiperazin-1-yl)ethan-1-one]	21.9 nM	6.3 nM	9.6 nM	65.1 nM
Cc1c(C#Cc2cccnc2)sc2c1C(c1ccc(Cl)cc1)=N[C@@H](CC(=O)N1CCNCC1)c1nnc(C)n1-2 [Compound 116, (S)-2-(4-(4-chlorophenyl)-3,9-dimethyl-2-(pyridin-3-ylethynyl)-6H-thieno[3,2-f][1,2,4]triazolo[4,3-a][1,4]diazepin-6-yl)-1-(piperazin-1-yl)ethan-1-one]	17.3 nM	122 nM	10.4 nM	45.3 nM
Cc1c(C#Cc2cccnc2)sc2c1C(c1ccc(Cl)cc1)=N[C@@H](CC(=O)N1CCC(O)CC1)c1nnc(C)n1-2 [Compound 117, (S)-2-(4-(4-chlorophenyl)-3,9-dimethyl-2-(pyridin-3-ylethynyl)-6H-thieno[3,2-f][1,2,4]triazolo[4,3-a][1,4]diazepin-6-yl)-1-(4-hydroxypiperidin-1-yl)ethan-1-one]	19.8 nM	10.4 nM	6.3 nM	79.6 nM
Cc1c(C#Cc2cccnc2)sc2c1C(c1ccc(Cl)cc1)=N[C@@H](CC(=O)N1CCOCC1)c1nnc(C)n1-2 [Compound 118, (S)-2-(4-(4-chlorophenyl)-3,9-dimethyl-2-(pyridin-3-ylethynyl)-6H-thieno[3,2-f][1,2,4]triazolo[4,3-a][1,4]diazepin-6-yl)-1-morpholinoethan-1-one]	9.2 nM	27.7 nM	6.1 nM	103 nM
Cc1c(C#Cc2ccc(N)nc2)sc2c1C(c1ccc(Cl)cc1)=N[C@@H](CC(=O)N1CCN(C)CC1)c1nnc(C)n1-2 [Compound 120, (S)-2-(2-((6-aminopyridin-3-yl)ethynyl)-4-(4-chlorophenyl)-3,9-dimethyl-6H-thieno[3,2-f][1,2,4]triazolo[4,3-a][1,4]diazepin-6-yl)-1-(4-methylpiperazin-1-yl)ethan-1-one]	9.64 nM	4.9 nM	5.3 nM	9.74 nM
Cc1c(C#Cc2ccc(N)nc2)sc2c1C(c1ccc(Cl)cc1)=N[C@@H](CC(N)=O)c1nnc(C)n1-2 [Compound 121, (S)-2-(2-((6-aminopyridin-3-yl)ethynyl)-4-(4-chlorophenyl)-3,9-dimethyl-6H-thieno[3,2-f][1,2,4]triazolo[4,3-a][1,4]diazepin-6-yl)acetamide]	4.76 nM	8.4 nM	10.6 nM	21.9 nM
Cc1c(C#Cc2ccccn2)sc2c1C(c1ccc(Cl)cc1)=N[C@@H](CC(=O)N1CCNCC1)c1nnc(C)n1-2 [Compound 122, (S)-2-(4-(4-chlorophenyl)-3,9-dimethyl-2-(pyridin-2-ylethynyl)-6H-thieno[3,2-f][1,2,4]triazolo[4,3-a][1,4]diazepin-6-yl)-1-(piperazin-1-yl)ethan-1-one]	15.3 nM	34.6 nM	14.2 nM	19.4 nM
Cc1c(C#Cc2ccccn2)sc2c1C(c1ccc(Cl)cc1)=N[C@@H](CC(=O)N1CCC(O)CC1)c1nnc(C)n1-2 [Compound 123, (S)-2-(4-(4-chlorophenyl)-3,9-dimethyl-2-(pyridin-2-ylethynyl)-6H-thieno[3,2-f][1,2,4]triazolo[4,3-a][1,4]diazepin-6-yl)-1-(4-hydroxypiperidin-1-yl)ethan-1-one]	71.6 nM	59.4 nM	20.4 nM	61.1 nM
Cc1c(C#Cc2ccccn2)sc2c1C(c1ccc(Cl)cc1)=N[C@@H](CC(=O)N1CC3(COC3)C1)c1nnc(C)n1-2 [Compound 124, (S)-2-(4-(4-chlorophenyl)-3,9-dimethyl-2-(pyridin-2-ylethynyl)-6H-thieno[3,2-f][1,2,4]triazolo[4,3-a][1,4]diazepin-6-yl)-1-(2-oxa-6-azaspiro[3.3]heptan-6-yl)ethan-1-one]	57.4 nM	62 nM	10.9 nM	86.3 nM
Cc1c(C#Cc2ccccn2)sc2c1C(c1ccc(Cl)cc1)=N[C@@H](CC(=O)N1CC(F)(F)C1)c1nnc(C)n1-2 [Compound 127, (S)-2-(4-(4-chlorophenyl)-3,9-dimethyl-2-(pyridin-2-ylethynyl)-6H-thieno[3,2-f][1,2,4]triazolo[4,3-a][1,4]diazepin-6-yl)-1-(3,3-difluoroazetidin-1-yl)ethan-1-one]	57 nM	79 nM	25.9 nM	47 nM
CC(=O)NNC(=O)C[C@@H]1N=C(c2ccc(Cl)cc2)c2c(sc(C#Cc3ccccn3)c2C)-n2c(C)nnc21 [Compound 128, (S)—N′-acetyl-2-(4-(4-chlorophenyl)-3,9-dimethyl-2-(pyridin-2-ylethynyl)-6H-thieno[3,2-f][1,2,4]triazolo[4,3-a][1,4]diazepin-6-yl)acetohydrazide]	42.6 nM	12.8 nM	21.7 nM	202 nM
Cc1c(C#Cc2ccccn2)sc2c1C(c1ccc(Cl)cc1)=N[C@@H](CC(=O)NC1CCN(C)CC1)c1nnc(C)n1-2 [Compound 130, (S)-2-(4-(4-chlorophenyl)-3,9-dimethyl-2-(pyridin-2-ylethynyl)-6H-thieno[3,2-f][1,2,4]triazolo[4,3-a][1,4]diazepin-6-yl)-N-(1-methylpiperidin-4-yl)acetamide]	3.84 nM	19 nM	8.7 nM	13 nM
Cc1c(C#Cc2ccccn2)sc2c1C(c1ccc(Cl)cc1)=N[C@@H](CC(=O)NC1CCNCC1)c1nnc(C)n1-2 [Compound 131, (S)-2-(4-(4-chlorophenyl)-3,9-dimethyl-2-(pyridin-2-ylethynyl)-6H-thieno[3,2-f][1,2,4]triazolo[4,3-a][1,4]diazepin-6-yl)-N-(piperidin-4-yl)acetamide]	188 nM	26.9 nM	12.6 nM	243 nM
Cc1c(C#Cc2ccccn2)sc2c1C(c1ccc(Cl)cc1)=N[C@@H](CC(=O)N1CCC(F)(F)CC1)c1nnc(C)n1-2 [Compound 132, (S)-2-(4-(4-chlorophenyl)-3,9-dimethyl-2-(pyridin-2-ylethynyl)-6H-thieno[3,2-f][1,2,4]triazolo[4,3-a][1,4]diazepin-6-yl)-1-(4,4-difluoropiperidin-1-yl)ethan-1-one]	80 to 160 nM	33.5 nM	22.4 nM	91.9 nM
Cc1nnc(C[C@@H]2N=C(c3ccc(Cl)cc3)c3c(sc(C#Cc4ccccn4)c3C)-n3c(C)nnc32)s1 [Compound 134, (S)-4-(4-chlorophenyl)-3,9-dimethyl-6-((5-methyl-1,3,4-thiadiazol-2-yl)methyl)-2-(pyridin-2-ylethynyl)-6H-thieno[3,2-f][1,2,4]triazolo[4,3-a][1,4]diazepine]	11.9 nM	59.2 nM	7.88 nM	85.2 nM
